This note sets out measurements from patent publication US6713506B2, “Tea polyphenol esters and analogs thereof for cancer prevention and treatment” (University of South Florida, priority 2000, dated 2004).

Non-standard residues stand in square brackets, D forms with d. Residues, ends and D or L forms follow the SMILES beside them. *: point of attachment. Nle = CCCC[C@H](N)C(=O)O; Nva = CCC[C@H](N)C(=O)O; Cbz = O=C(OCc1ccccc1)*

Assay [1] concerns the target chymotrypsin-like activity of purified 20S proteasome (UniProt Q9P992). The class given is biochemical. The note with it: for IC50: read-out: IC50 towards the chymotrypsin-like activity of purified 20S proteasome. The procedure:
(§1) FIG. 8. […] A). […] Initially, 0.5 μg of purified 20S proteasome is incubated with 20 μM of a fluorogenic peptide substrate, Suc-Leu-Leu-Val-Tyr-AMC, for 30 min at 37° C. in 100 μl of assay buffer (20 mM Tris-HCl, pH 8.0) with various concentrations of tannic acid. After incubation, the reaction mixture is diluted to 200 μl with the assay buffer, followed by measurement of the hydrolyzed 7-amido-4-methyl-coumarin (AMC) groups using a fluorometer with an excitation filter of 380 nm and an emission filter of 460 nm. B). […] Tannic acid (0.3 μg/ml) and Glucose (180 μg/ml) are used in the proteasome activity assay as described above. C). […] Purified calpain I (3 μg) protein is incubated with 40 μM of a fluorogenic peptide substrate, Suc-Leu-Tyr-AMC, for 30 min at 37° C. in 100 μl of assay buffer (50 mM Tris-HCl, pH 7.5, containing 50 mM NaCl, 1 mM EDTA, 1 mM EGTA, 5 mM β-Mercaptoethanol, 5 mM CaCl2, and 0.1% CHAPS) in the absence (control) or presence of 5 μg/ml of tannic acid or 0.18 μg/ml of calpeptin (calpain inhibitor).
(§2) Inhibition of the proteasome activity in vitro by tea polyphenols—To measure the 20S proteasome chymotrypsin-like activity, 0.5 μg of a purified 20S proteasome (Calbiochem) is incubated with 20 μM of a fluorogenic peptide substrate, Suc-Leu-Leu-Val-Tyr-AMC (Calbiochem), for 30 min at 37° C. in 100 μl of assay buffer (20 mM Tris-HCl, pH 8.0), with or without tea polyphenols (purity >95%; Sigma) or tea extract. After incubation, the reaction mixture is diluted to 200 μl with the assay buffer, followed by measurement of the hydrolyzed 7-amido-4-methyl-coumarin (AMC) groups using a VersaFluor™ Fluorometer with an excitation filter of 380 nm and an emission filter of 460 nm (Bio-Rad).

Assay [2] addresses T1, proteasome chymotrypsin-like activity in living Jurkat cells (Homo sapiens, UniProt P28074).
T1 construct: endogenous in cells; host or cells: Jurkat T cells (whole cell extract or intact cells)
Nature of the assay: Proteasome chymotrypsin-like activity in living Jurkat T cells. The note with it: 10 μM, living Jurkat cells. The class given is cell-based. The procedure:
FIG. 10. Inhibition of the chymotrypsin-like activity by tannic acid in intact Jurkat T cells. Intact Jurkat T cells (1×10^5 cells/ml/well) are cultured in 24-well plates. These cells are first incubated for 12 h with various concentrations of tannic acid as indicated, followed by an additional 2 h-incubation with a fluorogenic peptide substrate, Suc-Leu-Leu-Val-Tyr-AMC for the chymotrypsin-like activity. Then, cell medium (200 μl per sample) is collected and used for measurement of free AMCs.
Inhibition of the proteasome activity in living cells by tea polyphenols—To measure inhibition of the chymotrypsin-like activity in living tumor cells, Jurkat T (1×10^5 cells/ml/well), MCF7 or PC-3 cells (1×10^4 cells/ml/well) are cultured in 24-well plates. These cells are first incubated for 12 h with various concentrations of EGCG, EGC, β-lactone or LLnL, followed by an additional 2 h-incubation with fluorogenic peptide substrates, Suc-Leu-Leu-Val-Tyr-AMC for the chymotrypsin-like activity and Z-Gly-Gly-Arg-AMC for the trypsin-like activity. After that, cell medium (200 μl per sample) is collected and used for measurement of free AMCs.

For assay [3], the target named is T2, caspase-3-like activity in Jurkat T cell extract (Homo sapiens, UniProt P42574).
T2 construct: endogenous in cells; host or cells: Jurkat T cell whole cell extract
T2 sequence (P42574 29-175 limits assumed): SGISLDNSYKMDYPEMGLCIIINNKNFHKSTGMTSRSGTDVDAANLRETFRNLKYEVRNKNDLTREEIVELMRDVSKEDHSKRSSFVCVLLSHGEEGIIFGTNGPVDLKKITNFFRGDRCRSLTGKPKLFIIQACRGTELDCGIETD
T2 sequence (P42574 176-277 limits assumed): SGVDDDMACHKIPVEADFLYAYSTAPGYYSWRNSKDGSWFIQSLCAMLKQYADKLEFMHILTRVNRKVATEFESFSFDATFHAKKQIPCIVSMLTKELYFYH
Kind of assay: Caspase-3 activity assay in Jurkat T cell extract. The format is biochemical. The procedure: Calpain I and Caspase-3 activities assays with tea polyphenols—To measure calpain I activity, 3 μg purified calpain I (Human Erythrocytes, Calbiochem) is incubated with 40 μM of a fluorogenic peptide substrate, Suc-Leu-Tyr-AMC (Calbiochem), for 30 min at 37° C. in 100 μl of assay buffer (50 mM Tris-HCl, pH 7.5, containing 50 mM NaCl, 1 mM EDTA, 1 mM EGTA, 5 mM β-Mercaptoethanol, 5 mM CaCl2, and 0.1% CHAPS), with or without EGCG. After incubation, the reaction mixture is diluted to 200 μl with the assay buffer, and the hydrolyzed AMCs are quantified as described above. For caspase-3 activity assay, the whole cell extract (3.5 μg) from Jurkat T cells is incubated for 90 min at 37° C. with 20 μM of a fluorogenic peptide substrate, Ac-Asp-Glu-Val-Asp-AMC. These procedures were similar to those of the proteasome assay with cell free extracts described above.

The next assay concerns the target T3, purified calpain I (Homo sapiens, UniProt P07384).
T3 construct: 3 μg purified calpain I (Human Erythrocytes, Calbiochem) is incubated; purchased Calbiochem; host or cells: human erythrocytes (tissue-purified)
T3 sequence (P07384 1-714): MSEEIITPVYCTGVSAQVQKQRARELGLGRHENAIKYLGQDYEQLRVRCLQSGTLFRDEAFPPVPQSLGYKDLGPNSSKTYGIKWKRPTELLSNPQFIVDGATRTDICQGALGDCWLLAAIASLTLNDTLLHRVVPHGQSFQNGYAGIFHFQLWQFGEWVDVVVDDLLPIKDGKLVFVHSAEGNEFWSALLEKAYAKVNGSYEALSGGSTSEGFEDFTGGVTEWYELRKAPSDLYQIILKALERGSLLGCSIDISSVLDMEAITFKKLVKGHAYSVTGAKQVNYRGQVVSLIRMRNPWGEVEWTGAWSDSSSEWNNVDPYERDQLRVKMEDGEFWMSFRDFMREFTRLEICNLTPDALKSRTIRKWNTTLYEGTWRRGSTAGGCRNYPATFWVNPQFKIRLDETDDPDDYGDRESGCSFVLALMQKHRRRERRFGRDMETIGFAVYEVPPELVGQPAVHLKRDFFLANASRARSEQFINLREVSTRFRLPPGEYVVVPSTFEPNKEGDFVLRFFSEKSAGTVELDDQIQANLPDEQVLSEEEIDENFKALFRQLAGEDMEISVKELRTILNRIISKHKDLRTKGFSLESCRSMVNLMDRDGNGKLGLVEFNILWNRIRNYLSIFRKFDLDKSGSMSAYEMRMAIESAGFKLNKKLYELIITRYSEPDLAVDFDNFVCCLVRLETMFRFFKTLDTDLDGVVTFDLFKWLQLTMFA
T3 sequence (P04632 1-268 partner): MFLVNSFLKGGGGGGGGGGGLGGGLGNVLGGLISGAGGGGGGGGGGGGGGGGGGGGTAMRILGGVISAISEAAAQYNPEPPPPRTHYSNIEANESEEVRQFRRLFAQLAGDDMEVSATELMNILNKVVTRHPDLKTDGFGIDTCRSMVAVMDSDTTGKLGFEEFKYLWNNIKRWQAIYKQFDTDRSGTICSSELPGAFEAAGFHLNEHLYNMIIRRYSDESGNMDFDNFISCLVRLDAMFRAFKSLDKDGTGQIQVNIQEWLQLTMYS
Kind of assay: Calpain I activity assay. To be noted: FIG. 3B: EGCG 10 μM, calpeptin 1 μM. The class given is biochemical. The procedure: as §1

For assay [4], the target named is chymotrypsin-like activity of purified 20S proteasome. The format is biochemical. To be noted: read-out: IC50 towards the chymotrypsin-like activity of purified 20S proteasome. Here is the method:
as §1, §2

Assay [5] concerns the target T4, proteasome activity in MCF-7 cells (Homo sapiens, UniProt P28072+P28074+Q99436).
T4 construct: endogenous in cells; host or cells: MCF-7 cells, pretreated and then lysed
T4 sequence (P28074 60-263): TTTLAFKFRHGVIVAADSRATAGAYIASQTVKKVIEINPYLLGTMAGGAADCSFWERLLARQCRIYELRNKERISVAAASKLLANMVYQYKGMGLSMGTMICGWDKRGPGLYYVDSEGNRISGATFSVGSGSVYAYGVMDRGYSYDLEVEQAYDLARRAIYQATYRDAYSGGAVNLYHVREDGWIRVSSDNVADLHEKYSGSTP
T4 sequence (P28072 1-239): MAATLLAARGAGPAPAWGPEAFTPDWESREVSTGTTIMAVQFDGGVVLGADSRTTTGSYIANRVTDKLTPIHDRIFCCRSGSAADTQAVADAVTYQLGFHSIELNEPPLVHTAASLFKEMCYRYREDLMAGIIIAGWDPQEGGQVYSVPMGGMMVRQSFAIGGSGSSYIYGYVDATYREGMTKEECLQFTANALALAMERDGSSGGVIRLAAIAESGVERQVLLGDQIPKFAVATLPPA
T4 sequence (Q99436 44-277): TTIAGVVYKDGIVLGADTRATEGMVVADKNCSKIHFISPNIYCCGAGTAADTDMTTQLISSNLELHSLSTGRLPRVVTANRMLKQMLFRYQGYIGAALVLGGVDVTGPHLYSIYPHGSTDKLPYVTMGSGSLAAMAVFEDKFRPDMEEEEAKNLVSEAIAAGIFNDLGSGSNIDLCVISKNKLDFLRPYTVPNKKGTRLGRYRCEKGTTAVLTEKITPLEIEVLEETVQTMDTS
Nature of the assay: Proteasome activity in lysate of pretreated MCF-7 cells. To be noted: MCF-7 cells pretreated with inhibitor. The format is cell-based. Here is the method:
(a) The selected cell lines are treated with EGCG (vs. EGC) or ECG (vs. EC) at various concentrations (0-80 μM) for up to 96 h, followed by preparation of protein extracts and measurement of the proteasomal chymotrypsin-like, trypsin-like and PGPH activities and the calpain activity in cell-free assay. […] Thus, a protein extract of breast cancer cells pretreated with EGCG also contains decreased levels of the proteasome activity.

chymotrypsin-like activity of purified 20S proteasome (UniProt Q9P992), sequence (Q9P992 whole entry): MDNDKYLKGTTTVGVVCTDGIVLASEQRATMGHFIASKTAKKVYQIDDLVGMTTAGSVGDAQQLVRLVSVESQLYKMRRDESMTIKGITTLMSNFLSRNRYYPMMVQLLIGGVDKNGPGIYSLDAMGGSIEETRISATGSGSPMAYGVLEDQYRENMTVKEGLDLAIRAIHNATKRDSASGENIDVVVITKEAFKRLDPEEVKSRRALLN
chymotrypsin-like activity of purified 20S proteasome, sequence (Q9P992 whole entry): as above

On to `COC(=O)c1cc(O)c(O)c(O)c1` [methyl gallate, reference compound], for which the “inhibition of purified 20S proteasome chymotrypsin-like activity (in words)” value in assay [1] is given as “more potent than gallate”. A word on the IC50: it is the point on the concentration scale where inhibition reaches its midpoint. For the compound (−)-gallocatechin-3-gallate [GCG], the IC50 in assay [1] came out at 0.187 µM. Regarding `CC(C)[C@H](O)[C@@]12NC(=O)[C@H](C)[C@@H]1OC2=O` [β-lactone, clastolactacystin β-lactone, reference compound], the “inhibition of chymotrypsin-like activity” value in assay [2] is 20%. Besides, the IC50 in assay [1] is 0.6 µM. Ac-DEVD-CMK [reference compound]: in assay [3], the “inhibition of caspase-3-like activity (in words)” value was “blocked”.

For the compound `Oc1cc(O)c2c(c1)OC(c1ccc(O)c(O)c1)C(O)C2` (single isomer, unassigned; (-)) [C, (−)-catechin], in assay [1], the “inhibition of purified 20S proteasome chymotrypsin-like activity (in words)” value is “do not inhibit the proteasome activity”. As to `CCCC[C@@H](C=O)NC(=O)[C@H](CC(C)C)NC(=O)[C@H](CC(C)C)NC(C)=O` [LLnL, reference compound] (Ac-Leu-Leu-[Nle]-aldehyde), the “inhibition of chymotrypsin-like activity” value in assay [2] is on record as 40%. For the compound `CCCC[C@@H](C=O)NC(=O)[C@H](CC(C)C)NC(=O)OCc1ccccc1` [Calpeptin, calpeptin, reference compound], the “inhibition of purified calpain activity (in words)” value at purified calpain I is reported as “able to inhibit”. Regarding (−)-epicatechin-3-gallate [ECG], in assay [1], the IC50 is 0.194 µM. Same read-out and setting: the same measure for (−)-catechin-3-gallate [CG]: 0.124 µM. Regarding `O=C(O)c1cc(O)c(O)c(O)c1` [gallic acid, reference compound], the 50% inhibitory concentration (IC50) in assay [4] was 7100 µM. In addition, the “fold less potent than EGCG” value in assay [1] (ratio of IC50 to EGCG) is given as 83,000 fold. In the case of `CCC[C@@H](C=O)NC(=O)[C@H](CC(C)C)NC(=O)[C@H](CC(C)C)NC(=O)OCc1ccccc1` [LLnV] (Cbz-Leu-Leu-[Nva]-aldehyde), the “proteasome activity in lysate of pretreated cells” value in assay [5] was “decreased levels of proteasome activity”. For the compound `Oc1cc(O)c2c(c1)O[C@H](c1cc(O)c(O)c(O)c1)[C@@H](O)C2` [GC, (−)-gallocatechin], in assay [1], the “inhibition of purified 20S proteasome chymotrypsin-like activity (in words)” value is recorded as “do not inhibit the proteasome activity”.
